Consider five compounds from patent US20230055705A1, “SUBSTITUTED THIOPHENE CARBOXAMIDES AND DERIVATIVES THEREOF” (Bayer Aktiengesellschaft, priority 2019, published 2023).

Data set [1] concerns young plants of cabbage. In words: Phytotoxicity observed in the in vivo preventive test on Xanthomonas campestris pv. campestris. To be noted: for phytotoxicity: 125 ppm. How it is done: The young plants of cabbage were treated by spraying the active ingredient prepared as described above. Control plants were treated only with an aqueous solution of acetone/Dimethyl sulfoxide/Tween®.
After 72 hours, the plants were contaminated by spraying the leaves with an aqueous bacteria suspension of Xanthomonas campestris pv. campestris. The contaminated cabbage plants were incubated for 8 or 10 days at 27° C. at 95% relative humidity.
Compounds CMP1, CMP2, CMP3 and CMP4 were tested in an in vivo preventive test on Xanthomonas campestris pv. campestris (black rot on cabbage) in the same conditions as described in Example H.

Data set [2] concerns Xanthomonas campestris pv. campestris. Description: In vivo preventive test on Xanthomonas campestris pv. campestris (black rot on cabbage). The note with it: 31 ppm of active ingredient, evaluated 8 or 10 days after inoculation, read-out: efficacy. The gist of the method:
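Young cabbage plants sprayed with compound in acetone/DMSO/Tween diluted in water; solvent-only controls. Leaves sprayed with bacterial suspension 72 h later, then held 8 or 10 days at 27° C and 95% relative humidity. Efficacy scored 8 or 10 days post-inoculation, 0% matching controls, 100% meaning no disease.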

Data set [3] concerns young plants of cabbage. In words: Phytotoxicity observed in the in vivo preventive test on Peronospora parasitica. To be noted: for phytotoxicity: 500 ppm. The protocol: The tested active ingredients were prepared by homogenization in a mixture of acetone/Dimethyl sulfoxide/Tween®, and then diluted with water to obtain the desired active material concentration. The young plants of cabbage were treated by spraying the active ingredient prepared as described above. Control plants were treated only with an aqueous solution of acetone/Dimethyl sulfoxide/Tween®.
After 72 hours, the plants were contaminated by spraying the leaves with an aqueous suspension of Peronospora parasitica spores. The contaminated cabbage plants were incubated for 5 days at 20° C. and at 100% relative humidity.
Compounds CMP2 and CMP3 were tested in an in vivo preventive test on Peronospora parasitica (Crucifer downy mildew) in the same conditions as described in Example G.

Data set [4] has as its system Pseudomonas syringae pv. tomato. In words: In vivo preventive test on Pseudomonas syringae pv. tomato (bacterial speck on tomato). The note with it: 31 ppm of active ingredient, evaluated 5 or 6 days after inoculation, read-out: efficacy. The gist of the method:
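Young tomato plants sprayed with compound in acetone/DMSO/Tween diluted in water; solvent-only controls. Inoculated 72 h later by spraying leaves with bacterial suspension; 4 days saturated atmosphere then 1–2 days at 70–80% RH, 22 °C day/20 °C night. Efficacy scored 5–6 days post-inoculation, 0% = control, 100% = no disease.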

Data set [5] can be described thus: LogP by HPLC on reversed phase columns (EEC directive 79/831 Annex V.A8). Type of data set: physicochemical. The note with it: reversed phase HPLC columns. The essentials: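 Reversed-phase HPLC per EEC directive 79/831 Annex V.A8. Calibrated with straight-chain alkan-2-ones (C3–C16) of known LogP, LogP from retention times by linear interpolation between successive alkanones. Lambda-max taken from UV spectra (200–400 nm) at chromatographic peak maxima.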

The subject of a further data set is Uromyces appendiculatus. In words: In vivo preventive test on Uromyces appendiculatus (bean rust). The note with it: 240 h, 125 ppm of active ingredient, evaluated 10 days after inoculation, read-out: efficacy. The essentials:
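Young bean plants sprayed with compound in acetone/DMSO/Tween diluted in water, inoculated 72 h later with U. appendiculatus spore suspension. Held 24 h at 20 °C, 100% RH, then 9 days at 20 °C, 70-80% RH. Efficacy scored 10 days post-inoculation versus solvent-treated controls (0% = control, 100% = no disease).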

Data set [6] relates to Colletotrichum lindemuthianum. In words: Colletotrichum lindemuthianum in vitro cell test. Type of data set: cell-based. The note with it: 144 h, 20 ppm of active ingredient, 6 days incubation, read-out: efficacy (inhibition of fungal growth). How it is done:
(§1) • Solvent: DMSO • Culture medium: 14.6 g anhydrous D-glucose (VWR), 7.1 g Mycological Peptone (Oxoid), 1.4 g granulated Yeast Extract (Merck), QSP 1 liter • Inoculum: spores suspension
(§2) Fungicides were solubilized in DMSO and the solution used to prepare the required range of concentrations. The final concentration of DMSO used in the assay was ≤[…]1%.
A spore suspension of C. lindemuthianum was prepared and diluted to the desired spore density.
Fungicides were evaluated for their ability to inhibit spores germination and mycelium growth in liquid culture assay. The compounds were added in the desired concentration to the culture medium with spores. After 6 days incubation, fungi-toxicity of compounds was determined by spectrometric measurement of mycelium growth. Inhibition of fungal growth was determined by comparing the absorbance values in wells containing the fungicides with the absorbance in control wells without fungicides.

In a further data set the test system is Peronospora parasitica. In words: In vivo preventive test on Peronospora parasitica (Crucifer downy mildew). The note with it: Hyaloperonospora parasitica, in Brassica oleracea, 120 h, cabbage, evaluated 5 days after inoculation, read-out: efficacy; for pest or weed control at 31 ppm: 31 ppm of active ingredient; for pest or weed control at 125 ppm: 125 ppm of active ingredient. The essentials:
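Young cabbage plants were sprayed with compound in acetone/DMSO/Tween diluted with water, then inoculated 72 h later with a Peronospora parasitica spore suspension. Plants were kept 5 days at 20 °C and 100% RH. Efficacy was scored with 0% equal to solvent-treated controls and 100% meaning no disease.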

A further data set has as its system Alternaria alternata. In words: Alternaria alternata in vitro cell test. The data set is classed as cell-based. The note with it: 120 h, 20 ppm of active ingredient, 5 days incubation, read-out: efficacy (inhibition of fungal growth). How it is done:
as §1, §2
A spore suspension of A. alternata was prepared and diluted to the desired spore density.
Fungicides were evaluated for their ability to inhibit spore germination and mycelium growth in liquid culture assay. The compounds were added in the desired concentration to the culture medium with spores. After 5 days incubation, fungi-toxicity of compounds was determined by spectrometric measurement of mycelium growth. Inhibition of fungal growth was determined by comparing the absorbance values in wells containing the fungicides with the absorbance in control wells without fungicides.

Data set [7] concerns Xanthomonas campestris pv. campestris. In words: Xanthomonas campestris pv. campestris in vitro cell test. The data set is classed as cell-based. The note with it: 20 ppm of active ingredient, 24 h incubation, read-out: efficacy (inhibition of bacteria growth). The protocol:
• Solvent: DMSO • Culture medium: LB broth medium (Luria Broth Miller) Sigma • Inoculum: bacteria suspension
Compounds were solubilized in DMSO and the solution used to prepare the required range of concentrations. The final concentration of DMSO used in the assay was ≤1%.
(§3) Inoculum was prepared from a pre-culture of bacteria grown in liquid medium and diluted to the desired optical density (OD).
(§4) Compounds were evaluated for their ability to inhibit bacteria growth in liquid culture assay. The compounds were added in the desired concentrations to culture medium containing the bacteria suspension. After 24 h of incubation, the efficacy of compounds was determined by spectrometric measurement of bacteria growth. Inhibition was determined by comparing the absorbance values in wells containing the compounds with the absorbance in control wells without active ingredients.

The subject of data set [8] is salicylate responsive promoter sequence of the PR1 (pathogenesis-related protein I) gene (AT2G14610). In words: Induction of defense gene expression in Arabidopsis thaliana (PR1 promoter-GFP reporter plants). Type of data set: in vivo. The note with it: Arabidopsis thaliana, 72 h, 3rd day after spraying, mock treated leaves set as 1.00, read-out: relative fluorescence value; for fold induction at 75 ppm: 75 ppm of compound. The gist of the method:
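Transgenic A. thaliana carrying GFP under the salicylate-responsive PR1 promoter, grown five days, then sprayed with compounds. Whole-plant fluorescence imaged and quantified on day 3 post-spray, expressed relative to mock-treated leaf background set at 1.00.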

The test system of data set [9] is Pseudomonas syringae pv. tomato. Description: Pseudomonas syringae pv. tomato in vitro cell test. The data set is classed as cell-based. To be noted: 20 ppm of active ingredient, 24 h incubation, read-out: efficacy (inhibition of bacteria growth). The protocol:
Culture medium: LB broth medium (Luria Broth Miller) Sigma
Inoculum: bacteria suspension
Compounds were solubilized in DMSO and the solution used to prepare the required range of concentrations. The final concentration of DMSO used in the assay was 1%.
as §3, §4

For data set [10], the system named is Colletotrichum lindemuthianum. Description: In vivo preventive test on Colletotrichum lindemuthianum (Antrachnose on bean). To be noted: 144 h, 31 ppm of active ingredient, inoculation 72 h after spraying, evaluated 6 days after inoculation, read-out: efficacy. The essentials: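 Young bean plants sprayed preventively with compound in acetone/DMSO/Tween diluted in water, then spore-inoculated 72 h later. Incubation 24 h at 20° C./100% RH, then 5 days at 20° C./90% RH; scored 6 days post-inoculation as % efficacy (0% = solvent-treated control, 100% = no disease).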

The mark [11] stands for this setting: method [a]: LC-UV, in an acidic range, with 0.1% formic acid in water and acetonitrile as eluent (linear gradient from 10% to 95% acetonitrile).

With `COC(=O)[C@H](C)NC(=O)c1sc(Cl)c(Cl)c1Cl` [CMP2], in the data set on young plants of cabbage [1], the “phytotoxicity (in place of Efficacy (%) at 125 ppm)” value is listed as “* (No efficacy measured due to over 80% phytotoxicity observed)” and the phytotoxicity result is given as “over 80%”. Further, in data set [2], the pest or weed control at 31 ppm was under 40%. For the same compound, in the data set on young plants of cabbage [3], the “phytotoxicity (in place of Efficacy (%) at 500 ppm)” value is listed as “* (No efficacy measured due to over 80% phytotoxicity observed)” and the phytotoxicity entry is reported as “over 80%”.

`CCOC(=O)[C@H](C)NC(=O)c1sc(Cl)c(Cl)c1Cl` [CMP3]: in the data set with young plants of cabbage [1], the “phytotoxicity (in place of Efficacy (%) at 125 ppm)” value was “* (No efficacy measured due to over 80% phytotoxicity observed)” and the phytotoxicity result is recorded as “over 80%”. Also, the pest or weed control at 31 ppm in [2] came to 0%. Moreover, in the data set on young plants of cabbage [3], the “phytotoxicity (in place of Efficacy (%) at 500 ppm)” value is recorded as “* (No efficacy measured due to over 80% phytotoxicity observed)” and the phytotoxicity entry was “over 80%”.

The term chromatographic logP denotes lipophilicity estimated from chromatographic retention. A lower chromatographic logP goes with a more hydrophilic compound. The term inhibition denotes the share of the control response that was lost under treatment. Take `COC(=O)C(NC(=O)c1sc(Cl)c(Cl)c1Cl)C(=O)OC` [I.007]: the values for the pest or weed control at 31 ppm (in data set [4]; with Peronospora parasitica) were 80 to 89% and 90 to 100%, respectively. Also, in [5] (setting [11]), the chromatographic logP came out at 3.31. The pest or weed control at 125 ppm in the data set on Uromyces appendiculatus and in the data set on Peronospora parasitica was 90 to 100% each time. Moreover, the inhibition at 20 ppm (in [6]; in the data set on Alternaria alternata; in data set [7]; in data set [9]) was at most 30% throughout. Further, the fold induction at 75 ppm in data set [8] is over 2. Further, the fold induction at 300 ppm in data set [8] was over 2.

Turning to `NC(=O)CNC(=O)c1sc(Cl)c(Cl)c1Cl` [I.066, N-(2-amino-2-oxoethyl)-3,4,5-trichlorothiophene-2-carboxamide], the pest or weed control at 31 ppm fell in the range of 80 to 89% in [4], 90 to 100% with Peronospora parasitica and 70 to 79% in data set [10]. Further, the chromatographic logP in data set [5] (given in the preparation examples, method not marked) was found to be 1.89; in data set [5] (setting [11]), 1.89. Further, the pest or weed control at 125 ppm with Uromyces appendiculatus and in the data set on Peronospora parasitica was 90 to 100% in each case. Further, the inhibition at 20 ppm (in data set [6]; with Alternaria alternata; in data set [7]; in data set [9]) was at most 30% each time. The fold induction at 75 ppm in [8] is over 2. For the same compound, the fold induction at 300 ppm in data set [8] was over 2.

In the case of `COC(=O)CC[C@H](NC(=O)c1sc(Cl)c(Cl)c1Cl)C(=O)OC` [I.139], the results for the pest or weed control at 31 ppm (in data set [4]; in the data set with Peronospora parasitica; in data set [10]) were 80 to 89%, 90 to 100% and 70 to 79%, respectively. In [5] (method [a]: LC-UV, acidic range, 0.1% formic acid in water and acetonitrile as eluent (linear gradient 10% to 95% acetonitrile)), the chromatographic logP was found to be 3.36. Moreover, the pest or weed control at 125 ppm in the data set with Uromyces appendiculatus and in the data set with Peronospora parasitica was 90 to 100% each time. Moreover, the inhibition at 20 ppm (in data set [6]; with Alternaria alternata; in data set [7]; in [9]) was at most 30% each time. In data set [8], the fold induction at 75 ppm is over 2. For the same compound, the fold induction at 300 ppm in data set [8] was over 2.
